In ChEMBL document CHEMBL5608253, “Discovery and Optimization of Aryl Piperidinone Ureas as Selective Formyl Peptide Receptor 2 Agonists” (ACS Med Chem Lett, 2024):

What was measured:
[1] = molecular target: T1, N-formyl peptide receptor 2 (Homo sapiens, UniProt P25090); test: Agonist activity at human FPR2 expressed in CHO cells assessed as forskolin -induced cAMP level incubated for 30 mins in presence of IBMX by HTRF HiRange cAMP assay; type: functional, cell-based
T1 sequence (P25090 whole entry): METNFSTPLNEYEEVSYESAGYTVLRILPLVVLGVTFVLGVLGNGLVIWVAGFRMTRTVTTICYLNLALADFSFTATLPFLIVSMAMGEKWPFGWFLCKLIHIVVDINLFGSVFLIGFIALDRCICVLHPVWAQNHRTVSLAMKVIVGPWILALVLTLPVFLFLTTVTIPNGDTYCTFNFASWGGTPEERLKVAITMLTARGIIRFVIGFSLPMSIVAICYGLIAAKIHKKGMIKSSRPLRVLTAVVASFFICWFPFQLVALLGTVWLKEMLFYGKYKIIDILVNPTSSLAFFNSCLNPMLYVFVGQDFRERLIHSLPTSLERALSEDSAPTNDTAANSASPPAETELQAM

[2] = Permeability across apical to basal side in human Caco-2 cells; type: ADME, cell-based; details: read-out: permeability
[3] = Protein binding in rat plasma assessed as free fraction; type: ADME, cell-free
[4] = Permeability across basal to apical side in human Caco-2 cells; type: ADME, cell-based; details: read-out: permeability
Cytochrome P450 2C9 = Cytochrome P450 2C9 (Homo sapiens, UniProt P11712); test: Inhibition of CYP2C9 (unknown origin); type: ADME
Cytochrome P450 2C9, sequence (P11712 whole entry): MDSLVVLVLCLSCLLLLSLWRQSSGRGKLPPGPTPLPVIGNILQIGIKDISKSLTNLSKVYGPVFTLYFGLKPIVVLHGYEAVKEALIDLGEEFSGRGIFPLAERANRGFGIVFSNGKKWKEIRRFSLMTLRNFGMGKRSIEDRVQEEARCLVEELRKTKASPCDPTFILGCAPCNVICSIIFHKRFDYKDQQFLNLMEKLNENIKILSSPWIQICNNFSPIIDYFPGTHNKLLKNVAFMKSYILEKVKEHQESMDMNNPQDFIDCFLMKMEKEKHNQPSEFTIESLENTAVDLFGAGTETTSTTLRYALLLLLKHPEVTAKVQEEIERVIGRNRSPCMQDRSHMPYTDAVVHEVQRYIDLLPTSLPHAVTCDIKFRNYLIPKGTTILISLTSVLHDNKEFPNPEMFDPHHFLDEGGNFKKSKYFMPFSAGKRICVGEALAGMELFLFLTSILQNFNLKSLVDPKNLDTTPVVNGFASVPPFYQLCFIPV

[5] = Protein binding in human plasma assessed as free fraction; type: ADME, cell-free
Cytochrome P450 2C19 = Cytochrome P450 2C19 (Homo sapiens, UniProt P33261); test: Inhibition of CYP2C19 (unknown origin); type: ADME
Cytochrome P450 2C19, sequence (P33261 whole entry): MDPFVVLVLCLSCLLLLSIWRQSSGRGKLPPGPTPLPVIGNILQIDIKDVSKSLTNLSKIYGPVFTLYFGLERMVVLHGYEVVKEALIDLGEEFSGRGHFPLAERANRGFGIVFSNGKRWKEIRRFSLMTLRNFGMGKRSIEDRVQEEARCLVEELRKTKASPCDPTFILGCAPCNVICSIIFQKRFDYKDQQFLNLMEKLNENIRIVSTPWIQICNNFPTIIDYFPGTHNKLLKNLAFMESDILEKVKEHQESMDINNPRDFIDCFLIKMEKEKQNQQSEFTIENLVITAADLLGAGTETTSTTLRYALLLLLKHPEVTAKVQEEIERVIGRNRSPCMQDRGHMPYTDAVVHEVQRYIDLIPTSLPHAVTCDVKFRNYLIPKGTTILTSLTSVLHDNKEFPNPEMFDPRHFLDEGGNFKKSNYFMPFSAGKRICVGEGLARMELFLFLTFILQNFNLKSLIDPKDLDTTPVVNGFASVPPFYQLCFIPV

Cytochrome P450 2D6 = Cytochrome P450 2D6 (Homo sapiens, UniProt P10635); test: Inhibition of CYP2D6 (unknown origin); type: ADME
Cytochrome P450 2D6, sequence (P10635 whole entry): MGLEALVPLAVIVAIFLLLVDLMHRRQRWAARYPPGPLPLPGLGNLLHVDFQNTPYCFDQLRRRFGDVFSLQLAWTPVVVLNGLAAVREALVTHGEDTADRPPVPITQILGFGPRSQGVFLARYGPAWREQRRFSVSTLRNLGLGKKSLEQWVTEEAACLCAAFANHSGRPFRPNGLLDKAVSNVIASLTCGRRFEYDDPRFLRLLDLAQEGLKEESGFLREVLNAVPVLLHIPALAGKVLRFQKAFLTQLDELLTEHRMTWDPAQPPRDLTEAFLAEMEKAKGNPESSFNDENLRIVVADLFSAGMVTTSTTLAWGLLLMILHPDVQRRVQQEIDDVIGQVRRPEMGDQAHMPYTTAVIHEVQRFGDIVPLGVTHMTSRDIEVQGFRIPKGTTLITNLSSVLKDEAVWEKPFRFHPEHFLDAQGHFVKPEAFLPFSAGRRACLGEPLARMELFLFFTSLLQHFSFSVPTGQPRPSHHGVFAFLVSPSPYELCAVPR

Rattus norvegicus = test: Anti-inflammatory activity in LPS-treated rat model assessed as increase in IL-10 level at 10 mg/kg measured after 2 hrs relative to control; type: functional
Cytochrome P450 1A2 = molecular target: T2, Cytochrome P450 1A2 (Homo sapiens, UniProt P05177); test: Inhibition of CYP1A2 (unknown origin); type: ADME
T2 sequence (P05177 whole entry): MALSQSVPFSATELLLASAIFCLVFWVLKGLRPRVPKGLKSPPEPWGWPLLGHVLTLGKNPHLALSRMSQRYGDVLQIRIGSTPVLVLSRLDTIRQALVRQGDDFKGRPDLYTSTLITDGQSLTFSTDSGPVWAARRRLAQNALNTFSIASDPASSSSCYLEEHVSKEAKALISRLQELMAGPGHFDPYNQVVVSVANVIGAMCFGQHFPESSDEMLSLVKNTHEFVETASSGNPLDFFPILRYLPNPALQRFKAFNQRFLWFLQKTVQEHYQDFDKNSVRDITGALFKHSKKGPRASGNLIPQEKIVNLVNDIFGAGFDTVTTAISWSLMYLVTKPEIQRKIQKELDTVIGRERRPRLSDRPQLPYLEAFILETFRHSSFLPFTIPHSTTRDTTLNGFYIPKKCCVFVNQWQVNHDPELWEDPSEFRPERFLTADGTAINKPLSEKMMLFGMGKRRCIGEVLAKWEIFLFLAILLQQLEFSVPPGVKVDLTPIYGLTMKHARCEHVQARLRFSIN

[6] = Drug concentration in plasma of LPS-treated rat model at 10 mg/kg measured after 2 hrs; type: ADME, organism-based
[7] = Cmax in rat at 3 mg/kg, po; type: ADME, organism-based; details: in vivo
[8] = Agonist activity at rat FPR2 by cAMP assay
Cytochrome P450 3A4 = Cytochrome P450 3A4 (Homo sapiens, UniProt P08684); test: Inhibition of CYP3A4 (unknown origin); type: ADME
Cytochrome P450 3A4, sequence (P08684 whole entry): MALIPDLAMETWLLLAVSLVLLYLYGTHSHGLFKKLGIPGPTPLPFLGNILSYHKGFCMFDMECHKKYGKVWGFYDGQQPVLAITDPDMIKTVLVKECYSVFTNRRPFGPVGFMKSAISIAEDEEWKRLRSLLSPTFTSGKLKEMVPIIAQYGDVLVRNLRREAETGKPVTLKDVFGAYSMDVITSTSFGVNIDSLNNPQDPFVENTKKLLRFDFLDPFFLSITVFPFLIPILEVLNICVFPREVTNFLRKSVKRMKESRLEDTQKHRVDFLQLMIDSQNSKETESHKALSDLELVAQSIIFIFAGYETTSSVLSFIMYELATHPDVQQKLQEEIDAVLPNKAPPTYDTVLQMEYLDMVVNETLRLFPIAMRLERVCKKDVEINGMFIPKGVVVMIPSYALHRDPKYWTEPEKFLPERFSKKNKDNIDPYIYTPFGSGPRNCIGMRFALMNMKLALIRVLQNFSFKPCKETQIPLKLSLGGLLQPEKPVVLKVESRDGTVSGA

[9] = AUC (total) in rat at 3 mg/kg, po; type: ADME, organism-based; details: in vivo

Row | Compound | EC50 [1] | Papp A→B [2] | fraction unbound [3] | Papp B→A [4] | INH (Cytochrome P450 2C9) | fraction unbound [5] | INH (Cytochrome P450 2C19) | INH (Cytochrome P450 2D6) | INH (Cytochrome P450 1A2) | concentration at 2 h [6] | Cmax [7] | EC50 [8] | INH (Cytochrome P450 3A4) | AUC [9] | Activity (Rattus norvegicus)
1 | CS(=O)(=O)Nc1ccccc1-c1ccc(N2CCC[C@@H](NC(=O)Nc3ccc(C(F)(F)F)nc3)C2=O)cc1 | 10 nM |  |  |  |  |  |  |  |  |  |  |  |  |  | 
2 | CS(=O)(=O)Nc1ccccc1-c1ccc(N2CCC[C@@H](NC(=O)Nc3ccc(C(F)(F)F)cn3)C2=O)cc1 | 4.5 nM |  |  |  |  |  |  |  |  |  |  |  |  |  | 
3 | COc1cnc(NC(=O)N[C@@H]2CCCN(c3ccc(-c4ccccc4NS(C)(=O)=O)cc3)C2=O)c(F)c1 |  | 11 ×10⁻⁶ cm/s | 0.08 | 44 ×10⁻⁶ cm/s | > 10 µM | 0.12 | > 10 µM | > 10 µM | > 10 µM |  | 830 nM |  | > 10 µM | 1.7 µM·h | 
4 | CS(=N)(=O)c1ccccc1-c1ccc(N2CCC[C@@H](NC(=O)Nc3ccc(C(F)(F)F)cc3)C2=O)cc1 (stereo in doubt; 10) | 9 nM |  |  |  |  |  |  |  |  |  |  |  |  |  | 

Now from value to molecule, other results behind:

Row | EC50 [1] | Papp A→B [2] | fraction unbound [3] | Papp B→A [4] | INH (Cytochrome P450 2C9) | fraction unbound [5] | INH (Cytochrome P450 2C19) | INH (Cytochrome P450 2D6) | INH (Cytochrome P450 1A2) | concentration at 2 h [6] | Cmax [7] | EC50 [8] | INH (Cytochrome P450 3A4) | AUC [9] | Compound | Activity (Rattus norvegicus)
5 | 2.8 nM |  |  |  |  |  |  |  |  |  |  |  |  |  | NC(=O)c1ccccc1-c1ccc(N2CCC[C@@H](NC(=O)Nc3ccc(C(F)(F)F)cc3)C2=O)cc1 | 
6 | 0.15 nM | < 1.5 ×10⁻⁶ cm/s | 0.01 | 41.8 ×10⁻⁶ cm/s | > 10 µM | 0.02 | > 10 µM | > 10 µM | > 10 µM | 490 nM | 300 nM | 0.4 nM | > 10 µM | 1.13 µM·h | CS(=O)(=O)Nc1ccccc1-c1ccc(N2CCC[C@@H](NC(=O)Nc3ccc(Cl)cc3)C2=O)cc1 | 140%
7 | 0.2 nM | 4.4 ×10⁻⁶ cm/s | 0.03 | 29.1 ×10⁻⁶ cm/s | > 10 µM | 0.03 | > 10 µM | > 10 µM | > 10 µM | 1700 nM | 610 nM | 0.6 nM | > 10 µM | 2.7 µM·h | CS(=O)(=O)Nc1ccccc1-c1ccc(N2CCC[C@@H](NC(=O)Nc3ccc(Cl)cc3F)C2=O)cc1 | 128%
8 | 0.14 nM | < 1.5 ×10⁻⁶ cm/s | 0.01 | 32.5 ×10⁻⁶ cm/s | > 10 µM | 0.01 | > 10 µM | > 10 µM | > 10 µM | 610 nM | 110 nM | 0.5 nM | > 10 µM | 0.45 µM·h | CS(=O)(=O)Nc1ccccc1-c1ccc(N2CCC[C@@H](NC(=O)Nc3ccc(C(F)(F)F)cc3)C2=O)cc1 | 183%
9 | 0.6 nM |  |  |  |  |  |  |  |  |  |  |  |  |  | CS(=O)(=O)Nc1ccccc1-c1ccc(N2CCC[C@@H](NC(=O)Nc3ccc(C(F)(F)F)cc3F)C2=O)cc1 | 
10 | 0.3 nM |  |  |  |  |  |  |  |  |  |  |  |  |  | COc1ccc(NC(=O)N[C@@H]2CCCN(c3ccc(-c4ccccc4NS(C)(=O)=O)cc3)C2=O)cc1 | 
11 | 1.6 nM |  |  |  |  |  |  |  |  |  |  |  |  |  | CS(=N)(=O)c1ccccc1-c1ccc(N2CCC[C@@H](NC(=O)Nc3ccc(C(F)(F)F)cc3)C2=O)cc1 (stereo in doubt; 9) | 
